# Tests used:
# NaV1.5 = NaV1.5 (Homo sapiens, UniProt Q14524); assay: Cardiac ion channel panel; type: cell-based; details: Full curve
# Excerpt: (§1) Full curve IC50 (µM) for hERG (human ether-a-go-go-related gene) and the cardiac ion channel panel (sodium and potassium ion channels; Nav1.5, IKs, Kv4.3), along with the L-type Calcium channel (Cav-1.2 Ver; verapamil, DIL; diltiazem), HepG2 C3A 3D spheroids, HepG2 C3A (2D cultures in glucose or galactose media), and THP1 cytotoxicity.
# Kv4.3 = Kv4.3 (Homo sapiens, UniProt Q9UK17); assay: Cardiac ion channel panel; type: cell-based; details: Full curve
# Excerpt: as §1
# IKs = IKs (Homo sapiens, UniProt P51787); assay: Cardiac ion channel panel; type: cell-based; details: Full curve
# Excerpt: as §1
# THP-1 = assay: THP1 cytotoxicity; type: cell-based; details: read-out: THP-1 Cytotox IC50
# Excerpt: as §1
# methionine = assay: Targeted LC–MS of methionine in plasma, liver, brain and heart; type: in vivo, rat; details: 30 mg/kg BID
# Procedure: SAM and methionine levels were quantified in plasma samples and tissues using Ultra Performance Liquid Chromatography (UPLC) coupled with quantitative MS in ESI positive ion mode as described in Supplementary M&M.
# For LCMS analysis, standard curves were spiked to give a calibrated range of 1.0 – 1000 nM for SAM and 1.0 – 2000 for methionine. 5 µL of standard spike solution was added to 45 µL of ACN/MeOH/H2O (40/40/20 v/v/v) and 2.5 µL of deuterated citrulline is added as an internal standard. A further calibration curve was prepared with 5 µL blank mouse plasma, 5 µL of standard and 40 µL of 40:40:20 Acetonitrile:Methanol:0.5% formic acid (Aq) with 2.5 µL of deuterated citrulline was used to investigate matrix suppression effects. Blank plasma was also diluted 1:10 with ACN/MeOH/H2O (40/40/20 v/v/v) and was also analysed to establish systemic biomarker levels.
# Metabolomic sample preparation and analysis. Tissue samples (liver, brain, heart) were extracted with 1 mL of ACN/MeOH/H2O 40/40/20 v/v/v per 100 mg material in a PrecellysCK28K-2 mL tube. Tissues were homogenised/extracted in 3x20 sec shake at 5500 rpm and centrifuged for 5 min at 10,621g. After centrifugation a maximum of 800 µL clear supernatant was transferred to cryovials and the same amount of extraction solvent used in the first step was added to tissue precipitate. Extraction procedure was repeated as above and clear supernatants combined in the same cryovial and vial labelled as polar metabolite extract. On the remaining tissue pellet 1ml (per100mg tissue material) of Butanol/MeOH 3/1v/v was added and the above extraction sequence applied. Resulted clear supernatant transferred to a clean cryovial and labelled as lipid extract. All samples kept at the lowest available temperature (0 °C) throughout the extraction process and stored at -80 °C until further analysis.
# HCT116 MTAP KO cells [1] = assay: HCT116 cell SDMA assay, MTAP KO; type: cell-based
# Excerpt: (§2) The structure and in vitro properties of the compound are shown in Table 1 together with potency in the HCT116 isogenic cell line (MTAP WT and KO) and in the MAT2A biochemical assay (SAM endpoint).
# MTAP KO HCT116 xenograft = tested on: MTAP KO HCT116 xenograft; parameters: method as in Atkinson et al. [2024]; details: ref Atkinson et al. [2024], cited from earlier work
# [2] = parameters: method as in Atkinson et al. [2024]; details: ref Atkinson et al. [2024]; cited from earlier work
# HCT116 MTAP KO cells [3] = assay: HCT116 cell SAM assay, MTAP KO; type: cell-based
# Excerpt: as §2
# [4] = Rat plasma fraction unbound by rapid equilibrium dialysis; type: in vitro ADME
# Sequence of NaV1.5 (Q14524 whole entry): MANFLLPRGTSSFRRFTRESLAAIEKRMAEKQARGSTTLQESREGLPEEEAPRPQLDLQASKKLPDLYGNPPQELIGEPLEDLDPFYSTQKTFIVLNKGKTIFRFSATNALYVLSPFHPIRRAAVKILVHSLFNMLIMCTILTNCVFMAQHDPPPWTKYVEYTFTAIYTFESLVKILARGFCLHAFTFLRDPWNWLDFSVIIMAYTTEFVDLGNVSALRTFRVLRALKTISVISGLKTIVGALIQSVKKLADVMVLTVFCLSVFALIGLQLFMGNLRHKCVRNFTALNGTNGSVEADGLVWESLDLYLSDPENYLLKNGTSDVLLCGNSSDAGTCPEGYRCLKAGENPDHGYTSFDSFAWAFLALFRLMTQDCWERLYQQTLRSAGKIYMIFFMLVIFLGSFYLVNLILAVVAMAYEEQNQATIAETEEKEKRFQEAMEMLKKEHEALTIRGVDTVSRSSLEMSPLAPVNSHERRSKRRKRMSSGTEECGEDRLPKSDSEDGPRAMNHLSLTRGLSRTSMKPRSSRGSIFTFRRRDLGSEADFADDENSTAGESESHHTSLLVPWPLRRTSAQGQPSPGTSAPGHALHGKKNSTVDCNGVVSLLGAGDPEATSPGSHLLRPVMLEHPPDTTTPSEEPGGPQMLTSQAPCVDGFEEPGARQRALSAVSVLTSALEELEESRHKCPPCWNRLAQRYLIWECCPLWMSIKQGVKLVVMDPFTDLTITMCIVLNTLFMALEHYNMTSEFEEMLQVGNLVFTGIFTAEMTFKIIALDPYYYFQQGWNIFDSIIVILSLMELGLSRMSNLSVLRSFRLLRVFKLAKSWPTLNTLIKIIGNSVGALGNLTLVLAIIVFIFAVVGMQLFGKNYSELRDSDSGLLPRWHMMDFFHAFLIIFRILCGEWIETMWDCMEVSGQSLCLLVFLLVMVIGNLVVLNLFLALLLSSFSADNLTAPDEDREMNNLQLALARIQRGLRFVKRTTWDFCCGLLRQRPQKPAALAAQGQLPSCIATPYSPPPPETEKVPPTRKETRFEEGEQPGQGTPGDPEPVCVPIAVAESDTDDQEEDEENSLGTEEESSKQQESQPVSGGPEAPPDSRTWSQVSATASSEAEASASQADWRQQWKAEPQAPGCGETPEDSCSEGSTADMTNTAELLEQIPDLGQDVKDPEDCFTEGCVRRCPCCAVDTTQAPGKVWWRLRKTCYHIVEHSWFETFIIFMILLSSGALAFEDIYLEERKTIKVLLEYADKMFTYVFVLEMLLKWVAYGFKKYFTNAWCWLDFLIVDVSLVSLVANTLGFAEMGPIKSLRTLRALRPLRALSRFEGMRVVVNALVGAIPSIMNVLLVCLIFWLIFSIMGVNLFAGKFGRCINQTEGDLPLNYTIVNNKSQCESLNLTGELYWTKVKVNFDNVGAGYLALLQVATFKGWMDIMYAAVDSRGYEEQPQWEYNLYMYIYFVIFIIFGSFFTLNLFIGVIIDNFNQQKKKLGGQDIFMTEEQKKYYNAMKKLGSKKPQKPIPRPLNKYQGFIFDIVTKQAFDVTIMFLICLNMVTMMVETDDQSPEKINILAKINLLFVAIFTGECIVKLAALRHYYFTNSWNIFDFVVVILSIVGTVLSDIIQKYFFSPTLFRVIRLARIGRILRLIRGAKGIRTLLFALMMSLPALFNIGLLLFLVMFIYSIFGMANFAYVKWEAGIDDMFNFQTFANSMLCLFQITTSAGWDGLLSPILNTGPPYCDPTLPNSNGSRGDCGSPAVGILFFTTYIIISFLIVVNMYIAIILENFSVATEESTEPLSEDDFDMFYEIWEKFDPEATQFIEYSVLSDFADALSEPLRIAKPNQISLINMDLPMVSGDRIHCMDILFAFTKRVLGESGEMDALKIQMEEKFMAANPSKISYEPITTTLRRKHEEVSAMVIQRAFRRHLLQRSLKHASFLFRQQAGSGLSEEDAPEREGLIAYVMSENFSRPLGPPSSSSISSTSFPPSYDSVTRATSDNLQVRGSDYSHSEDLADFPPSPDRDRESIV
# Sequence of Kv4.3 (Q9UK17 whole entry): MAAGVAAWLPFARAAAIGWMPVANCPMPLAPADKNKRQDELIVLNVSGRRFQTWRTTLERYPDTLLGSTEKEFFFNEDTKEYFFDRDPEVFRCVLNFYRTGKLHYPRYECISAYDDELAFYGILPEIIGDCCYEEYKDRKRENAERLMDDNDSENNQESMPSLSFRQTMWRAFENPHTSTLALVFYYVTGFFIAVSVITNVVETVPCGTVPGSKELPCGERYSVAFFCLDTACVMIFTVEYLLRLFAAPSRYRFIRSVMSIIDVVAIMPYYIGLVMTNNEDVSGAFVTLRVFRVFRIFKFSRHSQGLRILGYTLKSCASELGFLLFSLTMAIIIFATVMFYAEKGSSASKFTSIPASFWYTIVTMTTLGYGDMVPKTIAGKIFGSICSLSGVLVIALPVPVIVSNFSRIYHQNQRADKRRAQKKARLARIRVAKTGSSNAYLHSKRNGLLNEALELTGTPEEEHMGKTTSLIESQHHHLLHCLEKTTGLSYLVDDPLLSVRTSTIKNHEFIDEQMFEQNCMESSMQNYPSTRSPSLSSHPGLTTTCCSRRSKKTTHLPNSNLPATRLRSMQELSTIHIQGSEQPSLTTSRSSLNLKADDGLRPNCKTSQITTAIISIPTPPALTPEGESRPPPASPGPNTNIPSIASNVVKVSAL
# Sequence of IKs (P51787 whole entry): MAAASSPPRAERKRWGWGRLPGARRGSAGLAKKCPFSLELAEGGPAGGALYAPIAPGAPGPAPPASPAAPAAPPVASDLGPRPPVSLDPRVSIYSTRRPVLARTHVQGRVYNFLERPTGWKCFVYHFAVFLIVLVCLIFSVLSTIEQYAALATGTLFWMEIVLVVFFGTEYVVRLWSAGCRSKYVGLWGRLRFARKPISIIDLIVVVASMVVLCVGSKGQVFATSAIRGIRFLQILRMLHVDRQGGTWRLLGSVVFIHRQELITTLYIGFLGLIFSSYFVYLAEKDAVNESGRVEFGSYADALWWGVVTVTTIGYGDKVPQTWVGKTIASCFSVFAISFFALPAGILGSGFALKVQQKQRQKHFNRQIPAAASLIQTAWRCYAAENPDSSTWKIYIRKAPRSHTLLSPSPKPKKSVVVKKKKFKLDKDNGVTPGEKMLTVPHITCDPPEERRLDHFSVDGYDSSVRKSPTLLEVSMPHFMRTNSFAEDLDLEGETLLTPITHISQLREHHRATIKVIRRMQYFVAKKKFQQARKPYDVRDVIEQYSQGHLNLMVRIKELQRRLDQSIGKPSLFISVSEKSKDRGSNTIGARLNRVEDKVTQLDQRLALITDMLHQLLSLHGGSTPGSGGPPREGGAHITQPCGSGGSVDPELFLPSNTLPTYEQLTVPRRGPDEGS
smiles,measurement,setting,value
Cn1cc2cc(-c3cc4[nH]nc(C5CC5)c4n(-c4ccc(OC(F)F)cc4)c3=O)ccc2n1 [AZ’9567],IC50,NaV1.5,> 40 µM
same,IC50,Kv4.3,> 40 µM
same,IC50,IKs,> 33.3 µM
same,IC50,THP-1,> 50 µM
same,Brain Methionine % Control,methionine,1835 % Control
same,Heart Methionine % Control,methionine,1316 % Control
same,Liver Methionine % Control,methionine,2314 % Control
same,Plasma Methionine % Control,methionine,1557 % Control
same,HCT116 cell SDMA pIC50 MTAP KO,HCT116 MTAP KO cells [1],8.6
same,depletion of SAM,"MTAP KO HCT116 xenograft; 20 mg/kg BID, day 24",> 90%
same,depletion of SDMA,"MTAP KO HCT116 xenograft; 20 mg/kg BID, day 24",> 90%
same,anti-tumour response,MTAP KO HCT116 xenograft; 20 mg/kg BID,robust anti-tumour response
same,anti-tumour and PD modulation (SDMA and SAM),"MTAP KO HCT116 xenograft; 3, 10, 30 mg/kg BID",robust anti-tumour and PD modulation
same,"brain penetrance Kpu,u",[2],0.03 ± 0.01
same,HCT116 cell SAM MTAP KO pIC50,HCT116 MTAP KO cells [3],8.9
same,rat plasma fraction unbound,[4],0.00614

# From article PMC11272821, “Mechanistic safety assessment via multi-omic characterisation of systemic pathway perturbations following in vivo MAT2A inhibition” (Archives of Toxicology, 2024)
